For 2 compounds, ED50 results are on record in US4215043A, “Bicyclomycin derivatives” (Fujisawa Pharmaceutical Co., Ltd., priority 1975, dated 1980).

The structures appear in SMILES notation.

The experiment deals with Escherichia coli strain 1075. Kind of experiment: Protecting effect in experimental mice infections (E. coli strain 1075). In kind it is in vivo. The conditions noted are these: sc, 120 h, female albino mice 8 g-24 g, infected intraperitoneally with E. coli strain 1075, treated subcutaneously, survival on 5th day after infection, highest dosage tested usually 300 mg/kg. As to the method:
Protecting Effect in Experimental Mice Infections:
For a reference's sake, with regard to antimicrobial activity of the typical compound which falls within the category of the compounds of the formula (I) of the present invention, there are illustrated in vivo tests in which active ingredient are the following compounds.
The test compound against in vivo against the species Escherichia coli was tested using female albino mice weighing 8 g-24 g.
The mice were infected by intraperitoneal route with standardized suitable diluted bacterial suspensions of E. coli strain 1075 and then treated subcutaneously with the test compound.
The ED50 (mg/kg) was determined from the numbers of mice surviving on the 5th day after infection. The highest dosage tested was usually 300 mg/kg.

For orientation: ED50 means the dose at which the effect has come halfway, by size or by number of responders. Read a high ED50 as a need for a large dose. Turning to `C=C1CCOC2(C(O)C3(C)COC(C)(C)O3)NC(=O)C1(O)NC2=O` (centres unmarked) [Compound 1, 2',3'-O,O-isopropylidenebicyclomycin], it took a dose of 65 mg/kg to reach the 50% effect level (ED50).
In the case of `CC(O)(CO)C(O)C12NC(=O)C(O)(NC1=O)C(Br)(CBr)CCO2` (centres unmarked) [Compound 2, 5,11-dibromo-5,11-dihydrobicyclomycin], the ED50 was 60 mg/kg.
